Experimental data as given in PubChem BioAssay (NCI).
Values joined by “and” are separate entries in the source; they are usually repeats but may differ in a detail not shown here. Equal entries are not always repeated.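 1) Cells in 96-well plates. 2) Compound, 48 h, 5 concentrations. 3) Linear interpolation between surrounding doses. 4) Unreached endpoint = highest concentration. GI50 = concentration required for 50% inhibition of growth. At the TGI there is no net growth.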

Assays:
Test in all cases: NCI anticancer screen, dose series, 48 h
[1] = tested on: 786-0 renal
[2] = tested on: COLO 205 colon
[3] = tested on: LOX IMVI melanoma
[4] = tested on: M14 melanoma
[5] = tested on: T-47D breast
[6] = tested on: U251 CNS
[7] = tested on: UACC-62 melanoma
[8] = tested on: HL-60(TB) leukemia
[9] = tested on: KM12 colon
[10] = tested on: MDA-MB-435

Compound | GI50 [1] [µM] | TGI [1] | GI50 [2] [µM] | TGI [2] | GI50 [3] [µM] | TGI [3] | GI50 [4] [µM] | TGI [4] | GI50 [5] [µM] | TGI [5] | GI50 [6] [µM] | TGI [6] | GI50 [7] [µM] | TGI [7] | GI50 [8] [µM] | TGI [8] | GI50 [9] [µM] | TGI [9] | GI50 [10] [µM] | TGI [10] [µM]
COc1cc(CNCCN2C(=O)c3ccc4c5c(ccc(c35)C2=O)C(=O)N(CCNCc2cc(OC)c(OC)c(OC)c2)C4=O)cc(OC)c1OC | 0.145 | 0.391 µM | 0.177 | 0.673 µM | 0.142 | 0.421 µM | 0.717 | 1.4 µM | 0.189 | 0.718 µM | 0.182 | 0.684 µM | 0.552 | 1.36 µM | – | – | – | – | – | –
COc1cc(/C=C2\CCC/C(=C\c3ccc(O)c(OC)c3)C2=O)ccc1O | 1.67 | 4.42 µM and 3.07 µM | 3.61 | 24.4 µM and 13.6 µM | 1.46 | 3.49 µM and 2.83 µM | 1.92 | 6.79 µM and 5.61 µM | 1.91 | 12.2 µM and 7.41 µM | 1.62 | 8.89 µM and 4.21 µM | 1.6 | 5.32 µM and 4.06 µM | 0.397 | 10.7 µM and 10.8 µM | 1.25 | 5.83 µM and 2.62 µM | 1.42 | –
O=c1c2ccccc2c(/C=N\NC2=NCCN2)c2oc3ccccc3n12 | 33.9 | > 100 µM | 18.8 | 38.7 µM | 13.2 | 31.3 µM | 34.4 | > 100 µM | 17.6 | 36 µM | 18.7 | 51.2 µM | 16.3 | 33.4 µM | 25.3 | 92.6 µM | 16.7 | 34.4 µM | 38 | > 100
CC(=O)CC/C=C(\C)[C@H](O)[C@H](C)C(=O)O[C@H]1C[C@H](C)C=C2C=C[C@@]3(C)O[C@@H](O)CC(=O)[C@]3(C)[C@H]21 | 0.43 | 3.29 µM | 0.425 | 2.03 µM | 0.279 | 1.69 µM | 0.906 | 2.38 µM | 0.309 | 2.54 µM | 0.384 | 2.8 µM | 0.618 | 2.14 µM | 1.42 | 4.22 µM | 0.308 | 2.54 µM | 0.508 | 2.09
Oc1ccc2ccccc2c1N=Nc1cc(Cl)ccc1Cl | – | 17 µM | – | > 50 µM | – | – | – | > 50 µM | – | – | – | 22 µM | – | > 50 µM | – | > 50 µM | – | > 50 µM | – | > 50
O=C1C=CC(=C(c2ccccc2)c2ccc(O)cc2)C=C1 | – | > 100 µM | – | 49.7 µM | – | 17.9 µM | – | 91.6 µM | – | – | – | 29.2 µM | – | 28.9 µM | – | 47.2 µM | – | 41.5 µM | – | 32.5
COC(=O)c1ccc(/C=C(\c2ccc([N+](=O)[O-])o2)S(=O)(=O)c2ccc(NC(C)=O)cc2)o1 | – | 14.9 µM | – | 7.56 µM | – | – | – | 15.4 µM | – | > 100 µM | – | 28.8 µM | – | 4.31 µM | – | 8.69 µM | – | 27.8 µM | – | 12.8
Cc1cc(N2CCCCC2)nc(NC2CCCC(Nc3ccnc4cc(Cl)ccc34)C2)n1 (stereo not drawn) | 1.27 | 2.59 µM | 1.44 | 2.98 µM | – | – | 1.66 | 3.29 µM | 1.51 | 4.07 µM | – | – | – | – | – | – | 1.79 | 3.52 µM | 1.32 | 2.73
CSc1ccc2c(cc1=O)[C@@H](NC(=O)c1ccc(Cl)cc1)CCc1cc(O)c(O)c(O)c1-2 | – | > 100 µM | – | > 100 µM | – | 33.6 µM | – | > 100 µM | – | – | – | > 100 µM | – | 68.1 µM | – | > 100 µM | – | > 100 µM | – | –
CCN(CC)CC(C)C(=O)/C=C/c1ccc(C)cc1 (stereo not drawn) | – | 3.65 µM | – | 3.02 µM | – | 2.69 µM | – | 4.85 µM | – | – | – | 3.43 µM | – | 12.2 µM | – | 14.4 µM | – | 1.96 µM | – | –
CSc1nc2nn(Cc3ccccc3)cc2c(=O)[nH]1 | – | > 100 µM | – | > 100 µM | – | > 100 µM | – | > 100 µM | – | – | – | > 100 µM | – | > 100 µM | – | > 100 µM | – | > 100 µM | – | –
C=C1C(=O)O[C@H]2[C@H](OC(C)=O)[C@@H](C)CCCC3(C)OC3CCC3(CO3)[C@H](O)C[C@@H]12 (stereo partly drawn) | 5.15 | 21 µM | 3.8 | 65.6 µM | 12.6 | 25.2 µM | 11.1 | 23.6 µM | 13.7 | 62.5 µM | 10.4 | 22.1 µM | 11.8 | 24.1 µM | – | – | 13.6 | 28.5 µM | 9.24 | 28.6
CC(C)(C)c1cc(CCCCCCCC2(CCCCCCCc3cc(C(C)(C)C)cc(C(C)(C)C)c3)OC(COCCOCCCCCC#N)C(COCCOCCCCCC#N)O2)cc(C(C)(C)C)c1 (stereo not drawn) | – | > 100 µM | – | > 100 µM | – | > 100 µM | – | > 100 µM | – | – | – | > 100 µM | – | > 100 µM | – | > 100 µM | – | > 100 µM | – | –
O=C(/C=C/c1ccccc1O)c1ccc([N+](=O)[O-])cc1 | – | 32.6 µM | – | 27.4 µM | – | 33.4 µM | – | 52.2 µM | – | – | – | 28.5 µM | – | 31.2 µM | – | 56.9 µM | – | 40.4 µM | – | –
CCn1c2ccccc2c(=O)c2c(OC)ccc(OC)c21 | – | > 100 µM | – | > 100 µM | – | > 100 µM | – | > 100 µM | – | – | – | > 100 µM | – | > 100 µM | – | > 82.4 µM | – | > 100 µM | – | –
C/C(=N\OCC(O)CNCCSCc1ccccc1)c1ccccc1Cl (stereo not drawn) | – | 46.3 µM | – | 38.4 µM | – | 36.5 µM | – | 48 µM | – | 48.6 µM | – | – | – | 34.4 µM | – | 50.1 µM | – | 40.2 µM | – | 34.4
CCCCCCn1c(SC)nc(COC(=O)NC)c1COC(=O)NC | – | 30.3 µM | – | 29.2 µM | – | > 100 µM | – | 38.8 µM | – | 35 µM | – | – | – | 28.2 µM | – | 56 µM | – | 32.6 µM | – | 41.9
CN(C)CC(=O)Nc1ccc2ncnc(Nc3ccc(Oc4cccc(C(F)(F)F)c4)c(Cl)c3)c2c1 | 1.55 | 2.91 µM | – | – | 1.73 | 3.13 µM | 1.46 | 2.85 µM | 1.31 | 3.74 µM | 1.79 | 3.99 µM | 1.91 | 3.69 µM | 2.09 | 4.94 µM | 1.91 | 4 µM | 1.66 | 3.14
